Entries after “also recorded” stand apart in the source; their conditions may differ. Where two headings read alike, the source gives them in different places. Each block holds one molecule with its values, some of them ahead of it.
Key:
PARP-1 = PARP-1 (Homo sapiens, UniProt P09874); test: PARP-1 enzymatic activity assay (chemical quantification of NAD+)
Description: This assay is based on the chemical quantification of NAD^+, i.e. the amount of NAD^+ consumed when the active PARP-1 C-terminal catalytic domain sequentially transfers ADP-ribose subunits from nicotinamide adenine dinucleotide (NAD^+) to protein acceptors.^7
High-specific-activity PARP-1 and activated DNA were purchased from Trevigen (Gaithersburg, Md.). All other reagents required for this assay including NAD^+ were purchased from Sigma-Aldrich (St. Louis, Mo.). Known PARP-1 inhibitor PJ-34, used as a control in these experiments, was synthesized in-house. […] A solution of 50 μg/mL of activated DNA was made in PARP assay buffer and 10 μL was added to each well. Stock solutions of test compounds were first prepared in DMSO, diluted to varying concentrations in PARP assay buffer, and 10 μL was added to each well. To initiate the reaction, 10 μL of 10 μg/mL PARP-1 enzyme in PARP assay buffer was added to each well. The total volume was 50 μL, bringing the final concentrations to 2 μg/mL PARP-1 enzyme, 10 μg mL activated DNA, and 100 nM NAD^+ per well. The plate was then incubated at room temperature for 20 min. The amount of NAD^+ present was then determined by first adding 20 μL 2 M KOH, followed by 20 μL of 20% acetophenone (in ethanol) to each well.

MDA-MB-231 tumors = test: microPET imaging with [18F]12, MDA-MB-231 tumors; type: in vivo, mice; conditions: for effect of drug treatment on tracer uptake outside the tumor (microPET images): MDA-MB-231 tumor-bearing mice; for effect of drug treatment on tracer uptake outside the tumor (microPET images) / effect of drug treatment on tumor uptake of tracer (microPET images): 50 mg/kg IP 30 minutes before imaging; for effect of drug treatment on tumor uptake of tracer (microPET images) / tracer uptake, percent of injected dose per ml, after drug treatment vs baseline: MDA-MB-231 tumors; for tracer uptake, percent of injected dose per ml, after drug treatment vs baseline: 30 minutes after IP injection, paired t test
Protocol: (§1) This example illustrates the visualization of tumor tissue in microPET in mice. MDA-MB-436 human breast cancer xenograft tumors in immune-deficient mice were visualized by PET using [^18F]12.
(§2) Tumor-bearing mice were placed in an induction chamber containing ˜2% isoflurane/oxygen and then secured to a custom double bed for placement of tail vein catheters; anesthesia was maintained via nose-cone at ˜1% isoflurane/oxygen for the dynamic imaging procedure. The mice were injected with 150-200 μCi of [^18F]12 and scanned for 0-60 min using Focus 220 and Inveon PET/CT scanners. The standard uptake values (SUVs) were generated from manually drawn regions of interests for tumors and surrounding ‘background’ tissue. Visualization of specific uptake was determined by comparison of baseline scans with images acquired by tracer injection 20 minutes after pre-treatment with the blocking agents olaparib (50 mg/kg, IP) or 12 (1 mg/kg, IP).
(§3) This example illustrates uptake of Compound 12 ([^18F]WC-4-138) in mice. Mature female athymic nude mice (Charles River Laboratories) were implanted with 10^6 SCC1 cells or 10^7 MDA-MB-231 cells into the mammary fat pads. Mice bearing SCC1 tumors were imaged at 5 weeks and mice bearing MDA-MB-231 cells were imaged at 2.5 weeks after implant. Mice were anesthetized with 2% isoflurane/oxygen and maintained at 1% isoflurane/oxygen via nose cone throughout the imaging procedure. Whole animal microCT images were acquired on an Inveon PET/CT scanner. The mice were injected via tail vein with 11.36±0.5 MBq (307±13 μCi) of [^18F]WC(4)-138 and underwent a 60 minute dynamic scan using Focus 220 or Inveon PET/CT scanners. The microPET and microCT images were coregistered using Integrated Research Workflow software (Siemens). Regions of interest were drawn over tumors to determine time activity curves. For drug treatment studies, animals reached intraperitoneal injections of 50 mg/kg olaparib or iniparib 30 minutes before imaging. Mice were imaged at baseline, or 30 minutes after IP injection of olaparib or iniparib. Arrows indicate location of tumors as identified on CT.
(§4) In FIG. 8, mice were imaged at baseline, or 30 minutes after IP injection of olaparib or iniparib. (A) The percent of injected dose per ml was calculated for each MDA/MB-231 tumor at baseline or after drug treatment. […] Tracer uptake was unchanged in iniparib-treated mice (p=0.1098 as determined by a paired t test, n=6 tumors).

SCC1 tumors = test: microPET imaging with [18F]WC-4-138, SCC1 tumors; type: in vivo, mice; conditions: 30 minutes after IP injection, paired t test
Description: as §3, with “Mice were imaged at baseline, or 30 minutes after IP injection of olaparib or iniparib. Arrows indicate location of tumors as identified on CT.” left out
as §4

[1] = test system: head and neck cell lines SCC1 and SCC25; test: [18F]WC-4-138 uptake in cell culture, head and neck lines; type: cell-based; conditions: 10 μM drug prior to incubation with tracer
Protocol: In these experiments, the head and neck squamous cell carcinoma lines SCC1, SCC15, and SCC25 (ATCC) were propagated in Dulbecco's Modified Eagle's Medium (DMEM, Gibco) supplemented with 10% Fetal Bovine Serum (FBS, Gibco), Penicillin-Streptomycin (P/S, Gibco), and 100 ng/ml hydrocortisone (Sigma-Aldrich). The small cell lung cancer lines NCI-h69 and NCI-h82 (ATCC) were propagated m RPMI Medium (Gibco) supplemented with 10% FBS and 1% P/S. The human breast cancer cell line MDA-MB-231 (ATCC) was propagated in Eagle's Minimum Essential Medium (Gibco) supplemented with 5% FBS, 2% Vitamins for MEM (Gibco), 1% 200 mM L-glutamine (Gibco), 1% 10 mM Non-Essential Amino Acid (NEAA, Gibco).
For each experimental replicate, approximately 1 μCi of [^18F]WC-4-138 was diluted in 1 ml of cell culture medium and added to 10^6 cells. After 5, 30, or 60 minutes, the medium was collected and cells were washed twice in 0.7 ml Phosphate Buffered Saline (PBS, Gibco). Adherent cells were collected by scraping the cell culture dish and transferring to a microfuge tube. Radioactivity was measured in the collected medium, PBS, or cell pellets. Protein from the cell pellet was quantified using a […]. All data were decay-corrected and normalized to total protein quantity in the cell pellet. For drug treatment studies, cells were incubated with 10 μM Olaparib or Iniparib twenty-hours prior to incubation with [^18F]WC-4-138.
The head and neck cell lines SCC1 and SCC25 constitutively take up small amounts of tracer, registering as 0.001-0.002 μCi/μg in the cell pellet (FIG. 5A). […] Radioactivity was measured in head and neck squamous cell cancer (HNSCC) lines (SCC1 and SCC25) or small cell lung cancer (SCLC) lines (NCI-h69 and NCI-h82) after incubation with [^18F]WC-4-138 for 5, 30, or 60 minutes (n=3 at each time point). […] PARP activity was measured in HNSCC or lung SCLC cells. (FIG. 5C-D) [^18F]WC-4-138 uptake was measured in HNSCC cell lines treated with olaparib or iniparib. […]

MDA-MB-436 tumors = test: microPET imaging with [18F]12, MDA-MB-436 xenograft tumors; type: in vivo, mice; conditions: olaparib 50 mg/kg i.p. or 12 1 mg/kg i.p., 20 min prior to tracer
Protocol: as §1
MDA-MB-436 and MDA-MB-231 human breast cancer cells were maintained in cell culture under standard conditions with 5% CO2 atmosphere using Eagle's minimum essential medium (with Earle's balanced salt solution and 2 mM L-glutamine) supplemented with 2 mM E-glutamine, 1 mM sodium pyruvate, 0.1 mM non-essential amino acids 2% vitamins for MEM, and 5% fetal bovine serum. Cells in exponential growth were trypsinized and harvested for tumor implantation. After counting, cells were re-suspended in ice-cold 1:1 Matrigel and PBS to give the desired concentration and held on ice.
Mature female athymic nu/nu mice from Charles River Laboratories are allowed to acclimate in an AALAC accredited housing facility for at least 1 week prior to tumor implantation for these serial imaging studies. Female nu/nu mice were implanted in the mammary fat pads (near the auxiliary lymph nodes) with ˜8×10^6 MDA-MB-436 breast cancer cells in ˜100 μL of 1:1 Matrigel:PBS. Imaging studies were conducted 2-3 weeks post implantation.
as §2

[2] = read-out: IC50 (nM), inhibition of PARP-1, mean ± SD, at least three independent experiments

PARP-1, sequence (P09874 whole entry): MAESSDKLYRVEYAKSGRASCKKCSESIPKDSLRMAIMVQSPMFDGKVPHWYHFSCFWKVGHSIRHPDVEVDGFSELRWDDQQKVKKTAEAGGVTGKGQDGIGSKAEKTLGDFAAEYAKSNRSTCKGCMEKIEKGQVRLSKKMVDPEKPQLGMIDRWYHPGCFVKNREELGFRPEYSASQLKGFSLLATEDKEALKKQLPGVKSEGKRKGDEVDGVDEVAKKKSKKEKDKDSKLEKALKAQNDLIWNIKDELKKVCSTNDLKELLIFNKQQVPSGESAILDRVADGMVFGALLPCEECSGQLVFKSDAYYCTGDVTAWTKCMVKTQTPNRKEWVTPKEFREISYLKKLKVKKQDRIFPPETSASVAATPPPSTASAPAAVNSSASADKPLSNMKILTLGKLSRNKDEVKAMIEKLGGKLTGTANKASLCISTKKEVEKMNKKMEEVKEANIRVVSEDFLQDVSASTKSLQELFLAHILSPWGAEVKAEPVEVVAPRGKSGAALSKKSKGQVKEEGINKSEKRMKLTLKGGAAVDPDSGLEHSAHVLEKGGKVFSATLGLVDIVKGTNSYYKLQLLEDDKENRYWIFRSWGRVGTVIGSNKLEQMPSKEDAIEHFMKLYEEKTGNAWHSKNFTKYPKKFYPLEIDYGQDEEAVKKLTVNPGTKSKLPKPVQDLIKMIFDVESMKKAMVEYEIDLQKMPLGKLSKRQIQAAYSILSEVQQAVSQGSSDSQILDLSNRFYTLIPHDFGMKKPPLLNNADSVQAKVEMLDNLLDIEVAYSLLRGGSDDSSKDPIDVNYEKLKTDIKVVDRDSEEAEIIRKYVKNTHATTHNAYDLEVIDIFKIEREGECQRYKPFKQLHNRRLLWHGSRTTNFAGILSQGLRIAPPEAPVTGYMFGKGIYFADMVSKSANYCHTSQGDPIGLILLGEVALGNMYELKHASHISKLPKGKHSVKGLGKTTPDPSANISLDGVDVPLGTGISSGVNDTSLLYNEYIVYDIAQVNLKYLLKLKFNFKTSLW

Compound: NC(=O)c1cccc2[nH]c(-c3ccc(OCCF)cc3)nc12 [Compound 8, 2-(4-(2-Fluoroethoxy)phenyl)-1H-benzo[d]imidazole-4-carboxamide]
IC50 (PARP-1; read-out: IC50, inhibition of PARP-1, unit inferred): 10.8 nM

Compound: C#CCOc1ccc(-c2nc3c(C(N)=O)cccc3[nH]2)cc1 [Compound 9, 2-(4-(Prop-2-ynloxy)phenyl)-1H-benzo[d]imidazole-4-carboxamide]
IC50 (PARP-1; [2]): 25.8 ± 3.3 nM

IC50 (PARP-1): 63 nM
Compound: O=C1NCCn2c(-c3ccc(OCCF)cc3)nc3cccc1c32 [Compound 12, 5,6-Dihydro-2-(4-(2-fluoroethoxy)phenyl)-imidazo [4,5,1-jk][1,4]benezodiazepin-7(4H)-one]

IC50 (PARP-1; [2]): 18.7 ± 2.7 nM
Compound: C#CCOc1ccc(-c2nc3cccc4c3n2CCNC4=O)cc1 [Compound 13, 5,6-Dihydro-2-(4-(prop-2-ynyloxy)phenyl)-imidazo[4,5,1-jk][1,4]benzodiazepine-7(4H)-one]

IC50 (PARP-1; [2]): 22.1 ± 6.3 nM
Compound: O=C1NCCn2c(-c3ccc(OCc4cn(CCF)nn4)cc3)nc3cccc1c32 [Compound 15, 5,6-Dihydro-2-(4-((1-(2-fluoroethyl)-1H-1,2,3-triazol-4-yl)methoxy)phenyl)-imidazo[4,5,1-jk][1,4]benzodiazepin-7(4H)-one]

Compound: NC(=O)c1ccc(I)c([N+](=O)[O-])c1 [iniparib]
effect of drug treatment on tracer uptake outside the tumor (microPET images) (MDA-MB-231 tumors): abolishes said uptake in other types of cells
effect of drug treatment on tumor uptake of tracer (microPET images) (MDA-MB-231 tumors): does not effect the uptake
tracer uptake, percent of injected dose per ml, after drug treatment vs baseline (MDA-MB-231 tumors): unchanged
tracer uptake, percent of injected dose per ml, after drug treatment vs baseline (SCC1 tumors): unchanged
effect of drug on [18F]WC-4-138 uptake in HNSCC cell lines [1]: not

Compound: O=C(c1cc(Cc2n[nH]c(=O)c3ccccc23)ccc1F)N1CCN(C(=O)C2CC2)CC1 [olaparib]
effect of drug treatment on tracer uptake outside the tumor (microPET images) (MDA-MB-231 tumors): tracer is still present in other areas of the section
effect of drug treatment on tumor uptake of tracer (microPET images) (MDA-MB-231 tumors): abolished
tracer uptake, percent of injected dose per ml, after drug treatment vs baseline (MDA-MB-231 tumors): significantly reduced
effect of pretreatment on [18F]12 uptake in MDA-MB-231 tumor (MDA-MB-231 tumors; i.p. 50 mg/kg, 20 min pretreatment): decreased [^18F]12 uptake
tracer uptake, percent of injected dose per ml, after drug treatment vs baseline (SCC1 tumors): significantly reduced
effect of pretreatment on [18F]12 uptake in MDA-MB-436 tumors (MDA-MB-436 tumors): decreased [^18F]12 uptake in the tumors to the background tissue activity levels; also recorded: significantly decreased [^18F]12 uptake; also recorded: blocked
effect of pretreatment on [18F]12 uptake in MDA-MB-436 tumors (MDA-MB-436 tumors; listed as olaparib/AZD2281): blocked
effect of drug on [18F]WC-4-138 uptake in HNSCC cell lines [1]: abolished
